According to the NIST ThermoML archive (doi:10.1021/je300557g):
Numbers after ± are expanded uncertainties.

How the values were obtained:
[1] = 101.33 kPa, Liquid; for viscosity: Capillary tube (Ostwald / Ubbelohde) method; for mass density: Vibrating tube method
[2] = xn = mol fraction of the nth substance listed; details: 101 kPa, Liquid; for mass density: Vibrating tube method

With CO [methanol] the viscosity ([1]; 293.15 K) was 0.5833 ± 0.0069 mPa·s, the mass density ([1]; 293.15 K) was 791.24 ± 0.23 kg/m3 and the viscosity ([1]; 303.15 K) was 0.507 ± 0.006 mPa·s. It also gave a mass density ([1]; 303.15 K) of 781.81 ± 0.23 kg/m3, a viscosity ([1]; 313.15 K) of 0.4438 ± 0.0053 mPa·s and a mass density ([1]; 313.15 K) of 772.29 ± 0.24 kg/m3. It also gave a viscosity ([1]; 323.15 K) of 0.3873 ± 0.0047 mPa·s and a mass density ([1]; 323.15 K) of 762.63 ± 0.24 kg/m3.

CCCC[n+]1cccc(C)c1.F[B-](F)(F)F [1-butyl-3-methylpyridinium tetrafluoroborate] showed a viscosity ([1]; 293.15 K) of 246.62 ± 6.8 mPa·s, a mass density ([1]; 293.15 K) of 1185.66 ± 0.4 kg/m3 and a viscosity ([1]; 303.15 K) of 129.91 ± 2.4 mPa·s. For the same compound, the mass density ([1]; 303.15 K) was 1178.86 ± 0.4 kg/m3, the viscosity ([1]; 313.15 K) was 76.46 ± 1 mPa·s and the mass density ([1]; 313.15 K) was 1172.11 ± 0.39 kg/m3. For the same compound, the viscosity ([1]; 323.15 K) was 48.18 ± 0.57 mPa·s and the mass density ([1]; 323.15 K) was 1165.37 ± 0.39 kg/m3.

CCO [ethanol] showed a viscosity ([1]; 293.15 K) of 1.18 ± 0.014 mPa·s, a mass density ([1]; 293.15 K) of 789.48 ± 0.24 kg/m3 and a viscosity ([1]; 303.15 K) of 0.981 ± 0.011 mPa·s. It also gave a mass density ([1]; 303.15 K) of 781.3 ± 0.24 kg/m3, a viscosity ([1]; 313.15 K) of 0.822 ± 0.0097 mPa·s and a mass density ([1]; 313.15 K) of 772.57 ± 0.24 kg/m3. It also gave a viscosity ([1]; 323.15 K) of 0.6939 ± 0.0083 mPa·s and a mass density ([1]; 323.15 K) of 763.65 ± 0.25 kg/m3.

For CCCC[n+]1ccc(C)cc1.F[B-](F)(F)F [1-butyl-4-methylpyridinium tetrafluoroborate], the viscosity ([1]; 293.15 K) was 284.62 ± 8.5 mPa·s, the mass density ([1]; 293.15 K) was 1185.92 ± 0.4 kg/m3 and the viscosity ([1]; 303.15 K) was 144.68 ± 2.9 mPa·s. The mass density ([1]; 303.15 K) was 1179.12 ± 0.4 kg/m3, the viscosity ([1]; 313.15 K) was 85.53 ± 1.2 mPa·s and the mass density ([1]; 313.15 K) was 1172.12 ± 0.39 kg/m3. For the same compound, the viscosity ([1]; 323.15 K) was 55.53 ± 0.63 mPa·s and the mass density ([1]; 323.15 K) was 1165.52 ± 0.39 kg/m3.

Compound CCCC[n+]1ccccc1.F[B-](F)(F)F [1-butylpyridinium tetrafluoroborate] has a viscosity ([1]; 293.15 K) of 220.54 ± 5.7 mPa·s, a mass density ([1]; 293.15 K) of 1217.11 ± 0.42 kg/m3 and a viscosity ([1]; 303.15 K) of 119.52 ± 2.1 mPa·s. It also gave a mass density ([1]; 303.15 K) of 1210.83 ± 0.42 kg/m3, a viscosity ([1]; 313.15 K) of 71.11 ± 0.89 mPa·s and a mass density ([1]; 313.15 K) of 1203.72 ± 0.42 kg/m3. For the same compound, the viscosity ([1]; 323.15 K) was 45.59 ± 0.54 mPa·s and the mass density ([1]; 323.15 K) was 1196.68 ± 0.41 kg/m3.

In the case of CCCC[n+]1ccccc1.F[B-](F)(F)F [1-butylpyridinium tetrafluoroborate] + CCO, the mass density ([2]; 303.15 K, x1 = 0.0482) is reported as 843.38 ± 0.32 kg/m3, the mass density ([2]; 303.15 K, x1 = 0.0945) is reported as 892.42 ± 0.29 kg/m3 and the mass density ([2]; 303.15 K, x1 = 0.1932) is reported as 972.49 ± 0.27 kg/m3. It also gave a mass density ([2]; 303.15 K, x1 = 0.2702) of 1019.05 ± 0.25 kg/m3, a mass density ([2]; 303.15 K, x1 = 0.3959) of 1076.24 ± 0.27 kg/m3 and a mass density ([2]; 303.15 K, x1 = 0.4954) of 1110.49 ± 0.28 kg/m3. The mass density ([2]; 303.15 K, x1 = 0.5999) was 1139.33 ± 0.31 kg/m3, the mass density ([2]; 303.15 K, x1 = 0.699) was 1161.67 ± 0.33 kg/m3 and the mass density ([2]; 303.15 K, x1 = 0.7963) was 1179.99 ± 0.36 kg/m3. It also gave a mass density ([2]; 303.15 K, x1 = 0.8477) of 1188.5 ± 0.37 kg/m3, a mass density ([2]; 303.15 K, x1 = 0.8984) of 1196.25 ± 0.39 kg/m3 and a mass density ([2]; 303.15 K, x1 = 0.9461) of 1203.06 ± 0.4 kg/m3. The kinematic viscosity ([2]; 303.15 K, x1 = 0.0482) was 1.42e-06 ± 2.1e-08 m2/s, the kinematic viscosity ([2]; 303.15 K, x1 = 0.0945) was 1.96e-06 ± 2.9e-08 m2/s and the kinematic viscosity ([2]; 303.15 K, x1 = 0.1932) was 3.17e-06 ± 4.6e-08 m2/s. It also gave a kinematic viscosity ([2]; 303.15 K, x1 = 0.2702) of 4.37e-06 ± 6.3e-08 m2/s, a kinematic viscosity ([2]; 303.15 K, x1 = 0.3959) of 7.13e-06 ± 9.9e-08 m2/s and a kinematic viscosity ([2]; 303.15 K, x1 = 0.4954) of 1.03e-05 ± 1.4e-07 m2/s. It also gave a kinematic viscosity ([2]; 303.15 K, x1 = 0.5999) of 1.57e-05 ± 2.1e-07 m2/s, a kinematic viscosity ([2]; 303.15 K, x1 = 0.699) of 2.36e-05 ± 3.2e-07 m2/s and a kinematic viscosity ([2]; 303.15 K, x1 = 0.7963) of 3.58e-05 ± 4.8e-07 m2/s. It also gave a kinematic viscosity ([2]; 303.15 K, x1 = 0.8477) of 4.48e-05 ± 6e-07 m2/s, a kinematic viscosity ([2]; 303.15 K, x1 = 0.8984) of 5.83e-05 ± 7.1e-07 m2/s and a kinematic viscosity ([2]; 303.15 K, x1 = 0.9461) of 7.37e-05 ± 1.2e-06 m2/s. The mass density ([2]; 313.15 K, x1 = 0.0482) was 834.98 ± 0.32 kg/m3, the mass density ([2]; 313.15 K, x1 = 0.0945) was 884.28 ± 0.29 kg/m3 and the mass density ([2]; 313.15 K, x1 = 0.1932) was 964.73 ± 0.27 kg/m3. The mass density ([2]; 313.15 K, x1 = 0.2702) was 1011.49 ± 0.25 kg/m3, the mass density ([2]; 313.15 K, x1 = 0.3959) was 1068.89 ± 0.27 kg/m3 and the mass density ([2]; 313.15 K, x1 = 0.4954) was 1103.28 ± 0.28 kg/m3. It also gave a mass density ([2]; 313.15 K, x1 = 0.5999) of 1132.29 ± 0.31 kg/m3, a mass density ([2]; 313.15 K, x1 = 0.699) of 1154.79 ± 0.33 kg/m3 and a mass density ([2]; 313.15 K, x1 = 0.7963) of 1173.24 ± 0.36 kg/m3. It also gave a mass density ([2]; 313.15 K, x1 = 0.8477) of 1181.82 ± 0.37 kg/m3, a mass density ([2]; 313.15 K, x1 = 0.8984) of 1189.62 ± 0.38 kg/m3 and a mass density ([2]; 313.15 K, x1 = 0.9461) of 1196.46 ± 0.4 kg/m3. The kinematic viscosity ([2]; 313.15 K, x1 = 0.0482) was 1.29e-06 ± 1.9e-08 m2/s, the kinematic viscosity ([2]; 313.15 K, x1 = 0.0945) was 1.68e-06 ± 2.5e-08 m2/s and the kinematic viscosity ([2]; 313.15 K, x1 = 0.1932) was 2.57e-06 ± 3.8e-08 m2/s. It also gave a kinematic viscosity ([2]; 313.15 K, x1 = 0.2702) of 3.45e-06 ± 5e-08 m2/s, a kinematic viscosity ([2]; 313.15 K, x1 = 0.3959) of 5.43e-06 ± 7.8e-08 m2/s and a kinematic viscosity ([2]; 313.15 K, x1 = 0.4954) of 7.61e-06 ± 1.1e-07 m2/s. The kinematic viscosity ([2]; 313.15 K, x1 = 0.5999) was 1.14e-05 ± 1.6e-07 m2/s, the kinematic viscosity ([2]; 313.15 K, x1 = 0.699) was 1.65e-05 ± 2.2e-07 m2/s and the kinematic viscosity ([2]; 313.15 K, x1 = 0.7963) was 2.41e-05 ± 3.2e-07 m2/s. For the same compound, the kinematic viscosity ([2]; 313.15 K, x1 = 0.8477) was 2.95e-05 ± 3.9e-07 m2/s, the kinematic viscosity ([2]; 313.15 K, x1 = 0.8984) was 3.73e-05 ± 5e-07 m2/s and the kinematic viscosity ([2]; 313.15 K, x1 = 0.9461) was 4.58e-05 ± 6.2e-07 m2/s. For the same compound, the mass density ([2]; 323.15 K, x1 = 0.0482) was 826.69 ± 0.32 kg/m3, the mass density ([2]; 323.15 K, x1 = 0.0945) was 876.45 ± 0.3 kg/m3 and the mass density ([2]; 323.15 K, x1 = 0.1932) was 957.44 ± 0.28 kg/m3. For the same compound, the mass density ([2]; 323.15 K, x1 = 0.2702) was 1004.32 ± 0.25 kg/m3, the mass density ([2]; 323.15 K, x1 = 0.3959) was 1061.7 ± 0.27 kg/m3 and the mass density ([2]; 323.15 K, x1 = 0.4954) was 1096.06 ± 0.28 kg/m3. The mass density ([2]; 323.15 K, x1 = 0.5999) was 1125.08 ± 0.3 kg/m3, the mass density ([2]; 323.15 K, x1 = 0.699) was 1147.65 ± 0.33 kg/m3 and the mass density ([2]; 323.15 K, x1 = 0.7963) was 1166.21 ± 0.35 kg/m3. The mass density ([2]; 323.15 K, x1 = 0.8477) was 1174.82 ± 0.37 kg/m3, the mass density ([2]; 323.15 K, x1 = 0.8984) was 1182.65 ± 0.38 kg/m3 and the mass density ([2]; 323.15 K, x1 = 0.9461) was 1189.47 ± 0.39 kg/m3. It also gave a kinematic viscosity ([2]; 323.15 K, x1 = 0.0482) of 1.15e-06 ± 1.8e-08 m2/s, a kinematic viscosity ([2]; 323.15 K, x1 = 0.0945) of 1.41e-06 ± 2.1e-08 m2/s and a kinematic viscosity ([2]; 323.15 K, x1 = 0.1932) of 2.06e-06 ± 3.1e-08 m2/s. It also gave a kinematic viscosity ([2]; 323.15 K, x1 = 0.2702) of 2.73e-06 ± 4e-08 m2/s, a kinematic viscosity ([2]; 323.15 K, x1 = 0.3959) of 4.24e-06 ± 6.2e-08 m2/s and a kinematic viscosity ([2]; 323.15 K, x1 = 0.4954) of 5.94e-06 ± 8.5e-08 m2/s. For the same compound, the kinematic viscosity ([2]; 323.15 K, x1 = 0.5999) was 8.55e-06 ± 1.2e-07 m2/s, the kinematic viscosity ([2]; 323.15 K, x1 = 0.699) was 1.2e-05 ± 1.7e-07 m2/s and the kinematic viscosity ([2]; 323.15 K, x1 = 0.7963) was 1.7e-05 ± 2.3e-07 m2/s. The kinematic viscosity ([2]; 323.15 K, x1 = 0.8477) was 2.05e-05 ± 2.8e-07 m2/s, the kinematic viscosity ([2]; 323.15 K, x1 = 0.8984) was 2.53e-05 ± 3.4e-07 m2/s and the kinematic viscosity ([2]; 323.15 K, x1 = 0.9461) was 3.05e-05 ± 4.1e-07 m2/s.
